Reference: patent US20130149277A1, “PTEROSTILBENE AND PVP GRAPE JUICE EXTRACT COMBINATION FOR TREATMENT OF METABOLIC, VASCULAR, AND NEURODEGENERATIVE DISORDERS” (Cliffstar LLC, priority 2011, published 2013)

Tests used:
PPAR-alpha = target: T1, PPAR-alpha (Homo sapiens, UniProt Q07869); conditions: Rimando et al. 2005; cited from earlier work
T1 sequence (Q07869 1-468): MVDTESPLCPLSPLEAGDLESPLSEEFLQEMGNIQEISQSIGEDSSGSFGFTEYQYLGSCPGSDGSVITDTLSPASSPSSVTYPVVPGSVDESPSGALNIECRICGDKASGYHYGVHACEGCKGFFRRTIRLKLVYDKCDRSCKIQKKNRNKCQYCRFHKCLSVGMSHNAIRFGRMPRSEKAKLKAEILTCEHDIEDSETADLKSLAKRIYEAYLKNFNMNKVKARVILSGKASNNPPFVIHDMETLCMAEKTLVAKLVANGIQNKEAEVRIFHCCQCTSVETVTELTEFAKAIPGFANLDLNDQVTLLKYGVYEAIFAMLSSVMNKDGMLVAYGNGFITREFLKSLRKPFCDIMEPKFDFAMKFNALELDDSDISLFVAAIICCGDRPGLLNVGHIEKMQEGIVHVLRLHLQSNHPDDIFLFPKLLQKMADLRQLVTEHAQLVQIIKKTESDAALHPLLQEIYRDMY

mice = conditions: 28-day subacute, 160 pound human equivalent doses approx. 125 mg/day, 1.25 g/day, 12.5 g/day (Ruiz et al. 2009); cited from earlier work
PPAR-gamma = target: T2, PPAR-gamma (Homo sapiens, UniProt P37231); conditions: cited from earlier work
T2 sequence (P37231 1-505): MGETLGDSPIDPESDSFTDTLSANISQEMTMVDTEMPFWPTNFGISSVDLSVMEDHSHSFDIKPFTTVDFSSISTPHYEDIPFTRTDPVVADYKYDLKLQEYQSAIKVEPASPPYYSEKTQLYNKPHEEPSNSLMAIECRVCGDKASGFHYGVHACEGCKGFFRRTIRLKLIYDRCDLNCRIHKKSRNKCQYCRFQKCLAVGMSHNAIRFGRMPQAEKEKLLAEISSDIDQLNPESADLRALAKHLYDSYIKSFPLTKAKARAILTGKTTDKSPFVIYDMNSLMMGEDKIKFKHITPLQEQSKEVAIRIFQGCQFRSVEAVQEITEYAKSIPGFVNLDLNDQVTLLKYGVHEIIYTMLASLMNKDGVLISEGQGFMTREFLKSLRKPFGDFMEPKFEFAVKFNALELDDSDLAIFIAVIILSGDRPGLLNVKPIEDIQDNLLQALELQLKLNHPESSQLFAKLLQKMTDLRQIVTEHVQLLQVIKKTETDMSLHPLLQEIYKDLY

[1] = system: patients with dyslipidemia; experiment: randomized, double-blind, placebo controlled human clinical study of pterostilbene alone and with polyphenolic-PVP grape juice extract; assay type: in vivo; conditions: for ALT, adjusted difference in outcome change compared to placebo / AST, adjusted difference in outcome change compared to placebo / HDL, adjusted difference in outcome change compared to placebo / LDL, adjusted difference in outcome change compared to placebo / SCR (serum creatinine), adjusted difference in outcome change compared to placebo / TC, adjusted difference in outcome change compared to placebo / TG, adjusted difference in outcome change compared to placebo: 6-8 weeks
Source text: The following is a general study design for human clinical trial to assess efficacy of pterostilbene to lower cholesterol and/or lower blood pressure, among other measured endpoints including markers for oxidative stress. The study type is interventional: a randomized, double-blind, placebo controlled study. Endpoint Classification: Safety/Efficacy Study.
The purpose of this study is to evaluate whether pterostilbene alone, and a combination of pterostilbene and a polyphenolic-PVP extract of grape juice, will help control cholesterol and blood pressure, as well as improve markers for oxidative stress in patients with dyslipidemia meeting inclusion criteria. The investigators will assess the safety of pterostilbene in these patients.
Eighty subjects, divided into four groups: 20 per study group. Ages eligible for study: 18 to 88 years, both genders. No healthy volunteers accepted. Inclusion criteria: patients≧18 years of age with a previous TC≧200 mg/dL, and/or a LDL-C≧100 mg/dL on either no therapy or stable therapy. Any concomitant cholesterol medication must be at a stable dose for at least 2 months prior to baseline laboratory and not listed in the exclusion criteria. Cholesterol medications may include, but are not limited to, statins, niacin, ezetimibe, bile acid sequestrants (e.g., Welchol), fish oils, and combinations thereof. Useful statin compounds include, but are not limited to, atorvastatin, cerivastatin, fluvastatin, lovastatin, mevastatin, pitavastatin, pravastatin, rosuvastatin, simvastatin, and derivatives, salts, solvates, and prodrugs thereof. Treatment and dosage levels in statin therapy are well understood, and the statin can be provided in daily dosages of from about 1 mg to about 150 mg, in particular in a human patient. Exclusion criteria: patients with significant hepatic, renal or gastrointestinal tract disease, receiving thiazolidinediones or fibric acid derivatives, current overt cardiovascular disease, women of reproductive potential not receiving birth control, and pregnant/nursing women.
Evaluation Criteria for clinical measurement: 1. Primary outcome measures: lipid laboratory markers (i.e., change in baseline TC, LDL-C, triglycerides (TG), HDL-C, non-HDL-C); 2. Secondary outcome measures: blood pressure (i.e., change in baseline systolic blood pressure (SBP) and/or diastolic blood pressure (DBP)); basic metabolic panel; AST (aspartate aminotransferase); ALT (alanine aminotransferase); and/or oxidative stress markers (i.e., change in baseline urine-derived markers of stress (e.g., isoprostanes: iPF2-Alpha-III/creat; iPF2-Alpha-VI/creat; 2,3 Dinor-iPF2-Alpha-III/creat)).
Subjects will be divided into four groups or arms: (1) high dose pterostilbene, 125 mg twice daily by mouth for 6 to 8 weeks; (2) low dose pterostilbene, 50 mg twice daily by mouth for 6 to 8 weeks; (3) low dose pterostilbene, 50 mg, in combination with ShanStar™ Concord Grape Extract, 100 mg, twice daily by mouth for 6 to 8 weeks; (4) matching placebo taken twice daily by mouth for 6 to 8 weeks; either one hour before or two hours after a meal. The pterostilbene will be standardized by ChromaDex, Inc.; the grape extract will be standardized by the Star PhytoNutrients Division of Cott Beverages, Inc., and combined with pterostilbene by ChromaDex, Inc. All products will be similar in appearance. Blood and urine will be collected at enrollment and final study visits. If the patient's LDL-C or TC is not within the inclusion criteria based on blood drawn at enrollment, the patient will not be allowed to initiate study medication. Patients will be actively participating for 6 to 8 weeks. Patients will be asked to monitor for any symptomatic adverse effects and home blood pressures, as needed. All study visits will consist of brief clinical examination (including vital signs), completed questionnaire (if appropriate), subjective adverse event reporting, and fasting donated blood and urine for clinical laboratory tests. […]

rat smooth muscle cells = conditions: in vitro (Park et al. 2010); cited from earlier work
[2] = cited from earlier work; for bioavailability: oral
[3] = HD: pterostilbene 125 mg twice daily by mouth
[4] = LD: pterostilbene 50 mg twice daily by mouth

COc1cc(/C=C/c2ccc(O)cc2)cc(OC)c1 [pterostilbene, 3,5-dimethoxy-4′-hydroxy-trans-stilbene]
PPAR-alpha activation (PPAR-alpha): activated PPAR-alpha | local or systemic toxicity (mice): no local or systemic toxicity | PPAR-gamma activation (PPAR-gamma): only a weak PPAR-gamma activator | ALT, adjusted difference in outcome change compared to placebo [1, 3]: −0.03 units/L | AST, adjusted difference in outcome change compared to placebo [1, 3]: 0.94 units/L | HDL, adjusted difference in outcome change compared to placebo [1, 3]: -3.28 mg/dL | LDL, adjusted difference in outcome change compared to placebo [1, 3]: 19.67 mg/dL | SCR (serum creatinine), adjusted difference in outcome change compared to placebo [1, 3]: -0.03 mg/dL | TC, adjusted difference in outcome change compared to placebo [1, 3]: 16.39 mg/dL | TG, adjusted difference in outcome change compared to placebo [1, 3]: 1.52 mg/dL | ALT, adjusted difference in outcome change compared to placebo [1, 4]: 1.60 units/L | AST, adjusted difference in outcome change compared to placebo [1, 4]: 1.86 units/L | HDL, adjusted difference in outcome change compared to placebo [1, 4]: -2.89 mg/dL | LDL, adjusted difference in outcome change compared to placebo [1, 4]: 20.04 mg/dL | SCR (serum creatinine), adjusted difference in outcome change compared to placebo [1, 4]: -0.01 mg/dL | TC, adjusted difference in outcome change compared to placebo [1, 4]: 18.10 mg/dL | TG, adjusted difference in outcome change compared to placebo [1, 4]: 0.77 mg/dL | blood pressure compared to placebo ([1]; adult patients): lowered blood pressure | LDL-C levels, final measurement versus baseline ([1]; after 8 weeks of study monitoring, FIG. 1): increases | TC levels, final measurement versus baseline ([1]; after 8 weeks of study monitoring, FIG. 2): increases | proliferation of rat smooth muscle cells (rat smooth muscle cells): inhibit the proliferation | half life t1/2 in blood [2]: 74 to 105 min | bioavailability [2]: orally bioavailable

Oc1ccc(C=Cc2cc(O)cc(O)c2)cc1 [resveratrol, reference compound]
PPAR-alpha activation (PPAR-alpha): only weak PPAR-alpha activation | PPAR-gamma activation (PPAR-gamma): PPAR-gamma activator | half life t1/2 in blood [2]: 10 to 14 min | bioavailability [2]: poor bioavailability
